In PMC10700596 (Nature Communications, 2023):
“And” between values parts separate entries of the source, which are not always exact repeats. Equal entries are not always repeated. Where two headings read alike, the source gives them in different places.

Legend:
[1] = in vivo; type: in vivo, mice; conditions: plasma, mice, plasma; for Final plasma concentration, individual sample: IP 10 mg/kg, single animal, D=1
[2] = biological target: T1, EP4R (Homo sapiens, UniProt P35408); assay: PRESTO-Tango β-arrestin2 recruitment assay; type: cell-based
T1 construct: Tango fusion cassette (only 'tango' is printed); expressed in transfected cells; host or cells: HTLA cells (tTA-dependent luciferase reporter, β-arrestin2-TEV fusion)
T1 sequence (P35408 whole entry, the tested form may be a part): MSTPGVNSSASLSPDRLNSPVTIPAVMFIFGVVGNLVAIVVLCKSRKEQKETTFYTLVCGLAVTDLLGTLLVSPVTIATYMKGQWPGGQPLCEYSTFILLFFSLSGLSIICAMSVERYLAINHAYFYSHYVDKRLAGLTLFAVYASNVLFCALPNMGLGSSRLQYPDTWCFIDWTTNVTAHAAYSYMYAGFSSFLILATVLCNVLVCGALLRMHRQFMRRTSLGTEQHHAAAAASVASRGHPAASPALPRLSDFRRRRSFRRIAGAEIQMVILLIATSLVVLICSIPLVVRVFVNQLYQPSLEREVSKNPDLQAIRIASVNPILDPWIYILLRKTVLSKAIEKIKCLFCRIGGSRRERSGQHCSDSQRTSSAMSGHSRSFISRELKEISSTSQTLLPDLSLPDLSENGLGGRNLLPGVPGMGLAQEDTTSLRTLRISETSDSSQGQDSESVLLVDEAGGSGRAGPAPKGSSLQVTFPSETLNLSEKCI

O=C([O-])C1CCC2(CC1)CC(Nc1ncnc3[nH]c4c(F)cccc4c13)C2.[Na+] (centres unmarked) [Compound 77, [Na+].[O-]C(=O)C1CCC2(CC(C2)NC=3N=CN=C4NC=5C(F)=CC=CC5C34)CC1]
concentration at 30 min ([1]; male, CD-1, mouse, po, 30 mg/kg, PO 30 mg/kg, 30 min, read-out: Plasma concentration C (mean)): 21700 ng/mL
concentration at 60 min ([1]; male, CD-1, mouse, po, 30 mg/kg, PO 30 mg/kg, 60 min, single animals, read-out: Plasma concentration, Final (individual mouse)): 24400 ng/mL
concentration at 60 min ([1]; male, CD-1, mouse, po, 30 mg/kg, PO 30 mg/kg, 60 min, read-out: Plasma concentration C (mean)): 19600 ng/mL
concentration at 120 min ([1]; male, CD-1, mouse, po, 30 mg/kg, PO 30 mg/kg, 120 min, single animals, read-out: Plasma concentration, Final (individual mouse)): 11600 ng/mL
concentration at 120 min ([1]; male, CD-1, mouse, po, 30 mg/kg, PO 30 mg/kg, 120 min, read-out: Plasma concentration C (mean)): 9140 ng/mL
concentration at 240 min ([1]; male, CD-1, mouse, po, 30 mg/kg, PO 30 mg/kg, 240 min, single animals, read-out: Plasma concentration, Final (individual mouse)): 5200 ng/mL
concentration at 240 min ([1]; male, CD-1, mouse, po, 30 mg/kg, PO 30 mg/kg, 240 min, read-out: Plasma concentration C (mean)): 3600 ng/mL
concentration at 360 min ([1]; male, CD-1, mouse, po, 30 mg/kg, PO 30 mg/kg, 360 min, single animals, read-out: Plasma concentration, Final (individual mouse)): 4400 ng/mL
concentration at 360 min ([1]; male, CD-1, mouse, po, 30 mg/kg, PO 30 mg/kg, 360 min, read-out: Plasma concentration C (mean)): 4510 ng/mL
concentration at 480 min ([1]; male, CD-1, mouse, po, 30 mg/kg, PO 30 mg/kg, 480 min, read-out: Plasma concentration C (mean)): 5240 ng/mL
concentration at 1440 min ([1]; male, CD-1, mouse, po, 30 mg/kg, PO 30 mg/kg, 1440 min, read-out: Plasma concentration C (mean)): 187 ng/mL
AUC ([1]; male, CD-1, mouse, po, 30 mg/kg p.o., read-out: AUC (converted)): 108 µg·h/mL
Final plasma concentration, individual sample ([1]; 5 min, listed as Z5090949977, 10 mg/kg): 2415 ng/mL and 2458 ng/mL
Final plasma concentration, individual sample ([1]; 15 min, listed as Z5090949977, 10 mg/kg): 7952 ng/mL and 6935 ng/mL
Final plasma concentration, individual sample ([1]; 30 min, listed as Z5090949977, 10 mg/kg): 4477 ng/mL and 7535 ng/mL
Final plasma concentration, individual sample ([1]; 60 min, listed as Z5090949977, 10 mg/kg): 9306 ng/mL and 9568 ng/mL
Final plasma concentration, individual sample ([1]; 120 min, listed as Z5090949977, 10 mg/kg): 9975 ng/mL and 654 ng/mL and 8498 ng/mL
Final plasma concentration, individual sample ([1]; 240 min, listed as Z5090949977, 10 mg/kg): 3566 ng/mL and 4977 ng/mL and 2222 ng/mL
Final plasma concentration, individual sample ([1]; 360 min, listed as Z5090949977, 10 mg/kg): 2567 ng/mL and 1708 ng/mL
Final plasma concentration, individual sample ([1]; 480 min, listed as Z5090949977, 10 mg/kg): 872 ng/mL and 500 ng/mL
Final plasma concentration, individual sample ([1]; 1440 min, listed as Z5090949977, 10 mg/kg): 13.6 ng/mL and 18.4 ng/mL
Plasma concentration, Final (individual mouse) ([1]; IV 10 mg/kg, 5 min, single animals, listed as Z5090949977, 10 mg/kg): 28260 ng/mL and 26240 ng/mL
Plasma concentration, Final (individual mouse) ([1]; IV 10 mg/kg, 15 min, single animals, listed as Z5090949977, 10 mg/kg): 16140 ng/mL and 20380 ng/mL
Plasma concentration, Final (individual mouse) ([1]; IV 10 mg/kg, 30 min, single animals, listed as Z5090949977, 10 mg/kg): 14230 ng/mL and 12830 ng/mL
Plasma concentration, Final (individual mouse) ([1]; IV 10 mg/kg, 60 min, single animals, listed as Z5090949977, 10 mg/kg): 8422 ng/mL and 12040 ng/mL
Plasma concentration, Final (individual mouse) ([1]; IV 10 mg/kg, 120 min, single animals, listed as Z5090949977, 10 mg/kg): 4081 ng/mL and 3418 ng/mL
Plasma concentration, Final (individual mouse) ([1]; IV 10 mg/kg, 240 min, single animals, listed as Z5090949977, 10 mg/kg): 2055 ng/mL and 1818 ng/mL
Plasma concentration, Final (individual mouse) ([1]; IV 10 mg/kg, 360 min, single animals, listed as Z5090949977, 10 mg/kg): 2041 ng/mL and 1884 ng/mL
Plasma concentration, Final (individual mouse) ([1]; IV 10 mg/kg, 480 min, single animals, listed as Z5090949977, 10 mg/kg): 829 ng/mL and 1219 ng/mL and 1675 ng/mL
Plasma concentration, Final (individual mouse) ([1]; IV 10 mg/kg, 1440 min, single animals, listed as Z5090949977, 10 mg/kg): 31.5 ng/mL and 13.7 ng/mL and 84.5 ng/mL
Plasma concentration, Final (individual mouse) ([1]; PO 30 mg/kg, 5 min, single animals, listed as Z5090949977, 30 mg/kg): 2091 ng/mL and 7833 ng/mL and 3112 ng/mL
Plasma concentration, Final (individual mouse) ([1]; PO 30 mg/kg, 15 min, single animals, listed as Z5090949977, 30 mg/kg): 23680 ng/mL and 31270 ng/mL
Plasma concentration, Final (individual mouse) ([1]; PO 30 mg/kg, 30 min, single animals, listed as Z5090949977, 30 mg/kg): 18100 ng/mL and 24020 ng/mL
Plasma concentration, Final (individual mouse) ([1]; PO 30 mg/kg, 60 min, single animals, listed as Z5090949977, 30 mg/kg): 14280 ng/mL and 20060 ng/mL
Plasma concentration, Final (individual mouse) ([1]; PO 30 mg/kg, 120 min, single animals, listed as Z5090949977, 30 mg/kg): 8277 ng/mL and 7588 ng/mL
Plasma concentration, Final (individual mouse) ([1]; PO 30 mg/kg, 240 min, single animals, listed as Z5090949977, 30 mg/kg): 2686 ng/mL and 2897 ng/mL
Plasma concentration, Final (individual mouse) ([1]; PO 30 mg/kg, 360 min, single animals, listed as Z5090949977, 30 mg/kg): 3917 ng/mL and 5212 ng/mL
Plasma concentration, Final (individual mouse) ([1]; PO 30 mg/kg, 480 min, single animals, listed as Z5090949977, 30 mg/kg): 8465 ng/mL and 5117 ng/mL and 2129 ng/mL
Plasma concentration, Final (individual mouse) ([1]; PO 30 mg/kg, 1440 min, single animals, listed as Z5090949977, 30 mg/kg): 154 ng/mL and 78.9 ng/mL and 329 ng/mL
IC50 ([2]; PRESTO-Tango IC50 (nM)): 232 nM
Ki ([2]; calculated using the Cheng Prusoff equation, read-out: PRESTO-Tango Ki*): 46 nM
